Laboratory results as given in US20240024340A1, “Compositions and Methods For Treating Migraine” (priority 2020, published 2024).
“Also recorded” adds a separate entry of the source.

Tests used:
BALB/c mice [1] = type: in vivo; conditions: for effect on TST immobility compared to vehicle: Day 22 (FIG. 6B), imipramine 15 mg/kg, psilocybin 5 mg/kg Day 1, or both
Protocol: Imipraime (15 mg/kg) was given 1 hour before tail suspension testing on Day 22. […] For positive control, one group was given imipramine which is known to reduce immobility in TST in stressed mice.
Analysis: Simple comparisons between two groups were measured through inferential means.
Psilocybin loading dose was given 3-weeks prior to behavioral testing and imipramine was given 1-hour before testing on each testing day via Intraperitoneal injection (i.p, 5 ml/kg).

BALB/c mice [2] = assay: Elevated plus maze (EPM), anxiety-like behavior
BALB/c mice [3] = assay: Tail suspension test (TST), depression; psilocybin loading dose then psilocybin+CBD+6 MB maintenance

## CN(C)CCCN1c2ccccc2CCc2ccccc21 [imipramine]
BALB/c mice [1]
  effect on TST immobility compared to vehicle: anti-depressant effect

## [3-(2-dimethylaminoethyl)-1H-indol-4-yl] dihydrogen phosphate [psilocybin]
BALB/c mice [1]
  effect on TST immobility compared to vehicle: anti-depressant effect
BALB/c mice [1]; psilocybin 5 mg/kg Day 1, imipramine 15 mg/kg one hour before TST on Day 22 or Day 29
  effect of psilocybin loading dose on anti-depressive properties of imipramine: potentiate
BALB/c mice [2]; Day 14, two weeks after loading dose of 5 mg/kg psilocybin, vs vehicle control, 5 mg/kg
  percentage of time spent in open space / open arms of the EPM: significantly increased; also recorded: more time
BALB/c mice [2]; loading dose psilocybin 5 mg/kg, alone or followed by low dose psilocybin, CBD and 6 mushroom blend
  anxiety (symptoms) in mouse model: decreased
BALB/c mice [3]; Day 15, psilocybin loading dose 5 mg/kg on Day 1
  immobile posture time in TST: decreased
BALB/c mice [3]; Day 22 (three weeks after 5 mg/kg loading dose of psilocybin), all groups receiving a loading dose
  immobility time in TST: significantly lower; also recorded: significant decrease
BALB/c mice [3]; loading dose psilocybin 5 mg/kg, alone or followed by maintenance psilocybin, CBD and 6 mushroom blend
  depression (symptoms) in mouse model: decreased
